For this data set the following is noted: Liquid, Ebulliometric method (Recirculating still).

The structures appear in SMILES notation. Numbers after ± are expanded uncertainties.

For orientation: vapor or sublimation pressure means the equilibrium pressure above the liquid or solid.

With `CCCO` [propan-1-ol], the “vapor or sublimation pressure” value (370.2 K) is 101 ± 1 kPa.

In the case of `CCCOC(C)=O` [propyl ethanoate], the “vapor or sublimation pressure” value (374.8 K) is given as 101 ± 1 kPa.

As to `O` [water], the “vapor or sublimation pressure” value (372.9 K) was 101 ± 1 kPa.

These data come from the NIST ThermoML archive (doi:10.1016/j.fluid.2017.05.012).
